From ChEMBL document CHEMBL1125160, “Dihydropyrimidine calcium channel blockers: 2-heterosubstituted 4-aryl-1,4-dihydro-6-methyl-5-pyrimidinecarboxylic acid esters as potent mimics of dihydropyridines” (J Med Chem, 1990)

Organism: Oryctolagus cuniculus
Assay: Vasorelaxant potency in isolated potassium (K(+)-depolarized rabbit thoracic aorta.
Format: functional

Structure (SMILES) | IC50
CSC1=NC(c2cccc([N+](=O)[O-])c2)C(C(=O)OC(C)C)=C(C)N1 (stereo not given) | 7 nM
CCOC(=O)C1=C(C)NC(N(C)C)=NC1c1cccc([N+](=O)[O-])c1 (stereo not given) | 6100 nM
C=CCSC1=NC(c2cccc([N+](=O)[O-])c2)C(C(=O)OCC)=C(C)N1 (stereo not given) | 300 nM
CCOC(=O)C1=C(C)NC(SC)=NC1c1cccc(Cl)c1Cl (stereo not given) | 16 nM
CSC1=NC(c2cccc([N+](=O)[O-])c2)C(C(=O)OCCN(C)Cc2ccccc2)=C(C)N1 (stereo not given) | 30 nM
CCOC(=O)C1=C(C)NC(SC)=NC1c1ccccc1C(F)(F)F (stereo not given) | 36 nM
CSC1=NC(c2cccc(Cl)c2Cl)C(C(=O)OC(C)C)=C(C)N1 (stereo not given) | 6 nM
CSC1=NC(c2ccccc2C(F)(F)F)C(C(=O)OCCN(C)Cc2ccccc2)=C(C)N1 (stereo not given) | > 100000 nM
CSC1=NC(c2ccccc2[N+](=O)[O-])C(C(=O)OCCN(C)Cc2ccccc2)=C(C)N1 (stereo not given) | 1900 nM
CCOC(=O)C1=C(C)NC(SCCN(C)Cc2ccccc2)=NC1c1cccc([N+](=O)[O-])c1 (stereo not given) | 170 nM
CCOC(=O)C1=C(C)NC(SC)=NC1c1cccc([N+](=O)[O-])c1 (stereo not given) | 130 nM
CCCCCSC1=NC(c2cccc([N+](=O)[O-])c2)C(C(=O)OCC)=C(C)N1 (stereo not given) | 180 nM
CCOC(=O)C1=C(C)NC(SCc2ccccc2)=NC1c1cccc([N+](=O)[O-])c1 (stereo not given) | 190 nM
CCOC(=O)C1=C(C)N=C(OC)NC1c1cccc([N+](=O)[O-])c1 (stereo not given) | 710 nM

The remaining lines, values ahead:

IC50 | Structure (SMILES)
280 nM | COC(=O)C1=C(C)N=C(SC)NC1c1cccc([N+](=O)[O-])c1 (stereo not given)
300 nM | CCOC(=O)C1=C(C)NC(SC)=NC1c1ccccc1[N+](=O)[O-] (stereo not given)
1200 nM | CC1=C(C(=O)OC(C)C)C(c2cccc([N+](=O)[O-])c2)N=C(SCCN(C)C)N1 (stereo not given)
26 nM | CCOC(=O)C1=C(C)NC(OCC)=C(C(=O)OCC)C1c1cccc([N+](=O)[O-])c1 (stereo not given)
9 nM | CCC(C)OC(=O)C1=C(C)NC(SC)=NC1c1cccc([N+](=O)[O-])c1 (stereo not given)
4 nM | CCOC(=O)C1=C(C)NC(SCC)=C(C(=O)OCC)C1c1cccc([N+](=O)[O-])c1 (stereo not given)
